Starred links: 1 amine or outer side, 2 acyl side, 3 side chain; linkers in the order of their positions; H or OH if unused. Non-standard residues stand in square brackets, D forms with d. Residues, ends and D or L forms follow the SMILES beside them. ξ: configuration not given here. *: point of attachment. X9 = CCc1cc(OC)ccc1-c1ccc(CC(NC(=S)[C@H](CC(=O)O)N*)C(=S)NC(CCCc2ccccc2F)C(N)=O)cc1; ξNMeBip(2'-Et,4'-OMe) = CCc1cc(OC)ccc1-c1ccc(CC(NC)C(=O)O)cc1; ξBip(2'-Et-4'-OMe) = CCc1cc(OC)ccc1-c1ccc(CC(N)C(=O)O)cc1; X6 = O=C(C(CCCc1ccc(Cl)cc1Cl)N[*:1])[*:2]; X11 = CN(C(CCCc1ccccc1)C(=O)[*:2])[*:1]; ξαMePhe(2-F) = CC(N)(Cc1ccccc1F)C(=O)O; NMeD = CN[C@@H](CC(=O)O)C(=O)O; aThr = C[C@H](O)[C@H](N)C(=O)O; ξhhPhe = NC(CCCc1ccccc1)C(=O)O; ξαMeP = CC1(C(=O)O)CCCN1; Aib = CC(C)(N)C(=O)O; Moc = COC(=O)*
Target: T1, human glucagon receptor (Homo sapiens, UniProt P47871)
T1 construct: The full-length cDNA was cloned in pcDNA3.1 (Invitrogen); expressed in transfected cells
T1 sequence (P47871 26-477): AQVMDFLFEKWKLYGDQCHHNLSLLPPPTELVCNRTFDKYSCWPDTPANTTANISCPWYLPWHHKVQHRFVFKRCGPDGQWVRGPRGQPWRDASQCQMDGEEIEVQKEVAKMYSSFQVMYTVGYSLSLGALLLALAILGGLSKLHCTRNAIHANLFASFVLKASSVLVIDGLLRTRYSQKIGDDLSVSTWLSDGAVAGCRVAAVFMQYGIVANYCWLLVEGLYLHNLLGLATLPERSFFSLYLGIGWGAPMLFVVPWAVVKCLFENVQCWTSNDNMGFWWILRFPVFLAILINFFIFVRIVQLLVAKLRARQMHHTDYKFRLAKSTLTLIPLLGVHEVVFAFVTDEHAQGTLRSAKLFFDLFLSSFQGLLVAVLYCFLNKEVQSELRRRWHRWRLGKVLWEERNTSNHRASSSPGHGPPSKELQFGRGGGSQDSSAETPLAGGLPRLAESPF
Assay: In vitro human glucagon antagonist activity (inhibition of cAMP production) in CHO/human glucagon R cells
Assay type: cell-based
Conditions: with saturated concentration of glucagon peptide
Experimental: The CHO-K1 cells (CRL 9618) were obtained from American Type Culture Collection (Rockville, Md.). CHO cells were grown in Ham's F12 medium containing L-Glutamine (2 mM), HEPES (25 mM), NaHCO3 (1.1 g/L) and supplemented with newborn Calf Serum (NBCS; 10%), Penicillin (50 U/ml (v/v)) and Streptomycin (50 ug/ml (v/v)). Cells were split every 3 days 1:8.
The full-length cDNA was cloned in pcDNA3.1 (Invitrogen). […] Clones expressing the receptor were generated by G418 (800 μg/ml active, Sigma) selection. The stable clones were thereafter maintained at 500 ug/ml (G418). The selected clone was used between passages 9-25 for cAMP assays.
The cells were trypsinized using 2 ml of TPVG (0.25% trypsin, 0.53 mM EDTA, 1.38-mM glucose). The trypsin was inactivated using Ham's F12 medium containing 10% NBCS and the cells were suspended in 2 ml of complete medium. […] The medium was aspirated off from the 12 well plate and the cells were washed once using Ham's F12 (plain). The cells were incubated at 37° C. with 500 ul of Ham's F12+1% BSA+0.125 mM RO-20 for 30 min. […] After the incubation, the medium was removed and cells were washed once with plain Ham's F12. Subsequently, the cells were lysed by adding 500 ul of ice cold 0.1 N HCl to each well and shaking for 30 minutes at 200 rpm. The cells were then scrapped, the lysate was collected in micro centrifuge tubes and centrifuged at 12000 rpm for 10 min to remove the debris. 300 ul of supernatant from each micro-centrifuge tube was then removed into a glass tube and dried under N2 for 30 min, for cAMP estimation. The total cAMP was estimated from the sample according to the manufacturer's protocol using Cyclic AMP immunoassay kit (R&D systems, Minneapolis. MN). The remaining supernatant is used to determine the protein concentration using micro BCA (Sigma). Data is calculated as percent of control (Vehicle: water) and expressed as Mean+SD.

| Structure (SMILES) | Human Glucagon receptor antagonistic activity shown as inhibition of cAMP production of Glucagon peptide (1 nM test compound) [pmol/ml/μg prt] | Human Glucagon receptor antagonistic activity shown as inhibition of cAMP production of Glucagon peptide (10 nM test compound) [pmol/ml/μg prt] | Human Glucagon receptor antagonistic activity shown as inhibition of cAMP production of Glucagon peptide (100 nM test compound) [pmol/ml/μg prt] | Human Glucagon receptor antagonistic activity shown as inhibition of cAMP production of Glucagon peptide (1 μM test compound) [pmol/ml/μg prt] | Human Glucagon receptor antagonistic activity shown as inhibition of cAMP production of Glucagon peptide (10 μM test compound) [pmol/ml/μg prt] |
| --- | --- | --- | --- | --- | --- |
| CCc1cc(OC)ccc1-c1ccc(CC(NC(=O)[C@H](CC(=O)O)NC(=O)[C@H](CO)NC(=O)[C@@H](NC(=O)[C@H](Cc2ccccc2)NC(=O)[C@@H](NC(=O)CNC(=O)[C@H](CCC(N)=O)NC(=O)[C@H](CO)NC(=O)[C@@H](N)Cc2c[nH]cn2)[C@@H](C)O)[C@@H](C)O)C(=O)NC(CCCc2ccccc2)C(N)=O)cc1 (single isomer, unassigned) [compound 5] | 6 ± 0.02 | 5 ± 0.04 | 3 ± 0.14 | 0 | 0 |
| CCc1cc(OC)ccc1-c1ccc(CC(NC(=O)[C@H](CC(=O)O)NC(=O)[C@H](CO)NC(=O)[C@@H](NC(=O)[C@H](Cc2ccccc2)NC(=O)[C@@H](NC(=O)CNC(=O)[C@H](CCC(N)=O)NC(=O)C2(C)CCCN2C(=O)[C@@H](N)Cc2c[nH]cn2)[C@@H](C)O)[C@@H](C)O)C(=O)NC(CCCc2cccc(Cl)c2)C(N)=O)cc1 (single isomer, unassigned) [compound 11] | 3 ± 0.04 | 0 | 0 | 0 | 0 |
| CCc1cc(OC)ccc1-c1ccc(CC(NC(=O)[C@H](CC(=O)O)NC(=O)[C@H](CO)NC(=O)[C@@H](NC(=O)[C@H](Cc2ccccc2)NC(=O)[C@@H](NC(=O)CNC(=O)[C@H](CCC(N)=O)NC(=O)C2(NC(=O)[C@@H](N)Cc3c[nH]cn3)CCCC2)[C@@H](C)O)[C@@H](C)O)C(=O)NC(CCCc2ccc(Cl)cc2C)C(N)=O)cc1 (single isomer, unassigned) [compound 28] | 14 ± 0.02 | 11 ± 0.03 | 7 ± 0.22 | 3 ± 0.12 | 0 |
| CCc1cc(OC)ccc1-c1ccc(CC(NC(=S)[C@H](CC(=O)O)NC(=O)[C@H](CO)NC(=O)[C@@H](NC(=O)C(C)(Cc2ccccc2F)NC(=O)[C@@H](NC(=O)CNC(=O)[C@H](CCC(N)=O)NC(=O)C(C)(C)NC(=O)[C@H](Cc2c[nH]cn2)NC(=O)OC)[C@@H](C)O)[C@@H](C)O)C(=S)NC(CCCc2ccccc2)C(N)=O)cc1 (single isomer, unassigned) [compound 170] | 6 ± 0.05 | 5 ± 0.04 | 2 ± 0.16 | 0 | 0 |
| CCc1cc(OC)ccc1-c1ccc(CC(CNC(CCCc2ccccc2F)C(N)=O)NC(=O)[C@H](CC(=O)O)NC(=O)[C@H](CO)NC(=O)[C@@H](NC(=O)C(C)(Cc2ccccc2F)NC(=O)[C@@H](NC(=O)CNC(=O)[C@H](CCC(N)=O)NC(=O)C(C)(C)NC(=O)[C@H](Cc2c[nH]cn2)NC(=O)OC)[C@H](C)O)[C@H](C)O)cc1 (single isomer, unassigned) [compound 188] | 5 ± 0.04 | 3 ± 0.15 | 1 ± 0.15 | 0 | 0 |
| CCc1cc(OC)ccc1-c1ccc(CC(CNC(CCCc2ccccc2F)C(N)=O)NC[C@H](CC(=O)O)NC(=O)[C@H](CO)NC(=O)[C@@H](NC(=O)C(C)(Cc2ccccc2F)NC(=O)[C@@H](NC(=O)CNC(=O)[C@H](CCC(N)=O)NC(=O)C(C)(C)NC(=O)[C@H](Cc2c[nH]cn2)NC(C)=O)[C@H](C)O)[C@H](C)O)cc1 (single isomer, unassigned) [compound 199] | 4 ± 0.06 | 3 ± 0.11 | 0 | 0 | 0 |
| CCc1cc(OC)ccc1-c1ccc(CC(NC(=O)[C@H](CC(=O)O)NC(=O)[C@H](CO)NC(=O)[C@@H](NC(=O)[C@H](Cc2ccccc2)NC(=O)[C@@H](NC(=O)CNC(=O)[C@H](CCC(N)=O)NC(=O)C2(C)CCCN2C(=O)[C@@H](N)Cc2c[nH]cn2)[C@@H](C)O)[C@@H](C)O)C(=O)NC(CCCc2ccccc2)C(N)=O)cc1 (some centres unmarked) [compound 9] (H-H[ξαMeP]QGTFTSD[ξBip(2'-Et-4'-OMe)][ξhhPhe]-NH2) | 5 ± 0.02 | 3 ± 0.15 | 0 | 0 | 0 |
| CCc1cc(OC)ccc1-c1ccc(CC(NC(=O)[C@H](CC(=O)O)NC(=O)[C@H](CO)NC(=O)[C@@H](NC(=O)[C@H](Cc2ccccc2)NC(=O)[C@@H](NC(=O)CNC(=O)[C@H](CCC(N)=O)NC(=O)[C@H](CO)NC(=O)[C@@H](N)Cc2c[nH]cn2)[C@@H](C)O)[C@@H](C)O)C(=O)NC(CCCc2ccc(Cl)cc2Cl)C(N)=O)cc1 (some centres unmarked) [compound 51] (H-HSQGTFTSD[ξBip(2'-Et-4'-OMe)][X6]-NH2) | 5 ± 0.09 | 3 ± 0.11 | 0 | 0 | 0 |
| CCc1cc(OC)ccc1-c1ccc(CC(C(=O)N(C)C(CCCc2ccccc2)C(N)=O)N(C)C(=O)[C@H](CC(=O)O)N(C)C(=O)[C@H](CO)NC(=O)[C@@H](NC(=O)C(C)(Cc2ccccc2F)NC(=O)[C@@H](NC(=O)CNC(=O)[C@H](CCC(N)=O)NC(=O)C(C)(C)NC(=O)[C@H](Cc2c[nH]cn2)NC(=O)OC)[C@H](C)O)[C@H](C)O)cc1 (some centres unmarked) [compound 150] (Moc-H[Aib]QG[aThr][ξαMePhe(2-F)][aThr]S[NMeD][ξNMeBip(2'-Et,4'-OMe)][X11]-NH2) | 10 ± 0.12 | 8 ± 0.02 | 6 ± 0.04 | 4 ± 0.05 | 1 ± 0.02 |
| CCc1cc(OC)ccc1-c1ccc(CC(NC(=S)[C@H](CC(=O)O)NC(=O)[C@H](CO)NC(=O)[C@@H](NC(=O)C(C)(Cc2ccccc2F)NC(=O)[C@@H](NC(=O)CNC(=O)[C@H](CCC(N)=O)NC(=O)C(C)(C)NC(=O)[C@H](Cc2c[nH]cn2)NC(=O)OC)[C@@H](C)O)[C@@H](C)O)C(=S)NC(CCCc2ccccc2F)C(N)=O)cc1 (some centres unmarked) [compound 172] (Moc-H[Aib]QGT[ξαMePhe(2-F)]TS-X9) | 4 ± 0.16 | 2 ± 0.11 | 0 | 0 | 0 |

— patent publication US8883963B2 (Cadila Healthcare Limited, priority 2007, dated 2014)
